Holding throughout (format): cell-based
One assay deals with E. coli D22. The experiment in a line: microbe, parasite or virus in culture. The conditions noted are these: Escherichia coli, D22, read-out: MIC E. coli D22.
A further assay deals with A. baumannii ATCC 19606. The experiment in a line: microbe, parasite or virus in culture. The conditions noted are these: Acinetobacter baumannii, ATCC19606, read-out: MIC, A. baumannii ATCC 19606.
For assay [1], the system named is P. aeruginosa (ΔmexAB-oprM). The experiment in a line: Broth microdilution MIC in CAMHB. The conditions noted are these: Pseudomonas aeruginosa; read-out: MIC P. aeruginosa ΔmexAB-oprM.
Another assay deals with E. coli AG100A. The experiment in a line: Broth microdilution MIC in CAMHB. The conditions noted are these: Escherichia coli, read-out: MIC E. coli AG100A. For orientation: Broth dilution looks for growth in wells or tubes with falling amounts of substance.
A further assay relates to P. aeruginosa ATCC 27853. The experiment in a line: microbe, parasite or virus in culture. As to conditions: Pseudomonas aeruginosa, ATCC27853, read-out: MIC P. aeruginosa ATCC 27853.
For the next assay, the system named is K. pneumoniae UMM. The experiment in a line: microbe, parasite or virus in culture. As to conditions: Klebsiella pneumoniae, read-out: MIC K. pneumoniae UMM.
A further assay deals with P. aeruginosa ATCC 35151. The experiment in a line: microbe, parasite or virus in culture. As to conditions: Pseudomonas aeruginosa, ATCC35151, read-out: MIC P. aeruginosa ATCC 35151.
A further assay relates to E. coli 901C. The experiment in a line: microbe, parasite or virus in culture. As to conditions: Escherichia coli, read-out: MIC E. coli 901C.
For another assay, the system named is K. pneumoniae SI-117. The experiment in a line: microbe, parasite or virus in culture. The conditions noted are these: Klebsiella pneumoniae, SI117, read-out: MIC K. pneumoniae SI-117.
For another assay, the system named is E. coli AG100. The experiment in a line: microbe, parasite or virus in culture. As to conditions: Escherichia coli, AG100, read-out: MIC E. coli AG100.
Another assay concerns E. coli ATCC 25922. The experiment in a line: microbe, parasite or virus in culture. The conditions noted are these: Escherichia coli, ATCC25922, read-out: MIC E. coli 25922.
A further assay deals with K. pneumoniae 848844. The experiment in a line: microbe, parasite or virus in culture. The conditions noted are these: Klebsiella pneumoniae, 848844, read-out: MIC K. pneumoniae 848844.

≈ marks a conversion by molar mass, not a printed value.

As to `CCN1CCN(C(=O)NC(C(=O)N[C@H]2Cc3cccc(C(=O)O)c3OB2O)c2ccc(P(=O)(O)O)c(F)c2O)C(=O)C1=O` (stereo partly drawn) [Example 198, (3R)-3-(2-(4-ethyl-2,3-dioxopiperazine-1-carboxamido)-2-(3-fluoro-2-hydroxy-4-phosphonophenyl)acetamido)-2-hydroxy-3,4-dihydro-2H-benzo[e][1,2]oxaborinine-8-carboxylic acid], the MIC was 8 to 16 µg/mL (≈ 12.9 to 25.7 µM) in the assay with E. coli D22; 32 to 64 µg/mL (≈ 51.4 to 103 µM) in the assay on A. baumannii ATCC 19606; more than 128 µg/mL in [1]; 32 to 64 µg/mL (≈ 51.4 to 103 µM) with E. coli AG100A; more than 128 µg/mL in the assay on P. aeruginosa ATCC 27853; 32 to 64 µg/mL (≈ 51.4 to 103 µM) in the assay with K. pneumoniae UMM. In addition, the MIC was 8 to 16 µg/mL (≈ 12.9 to 25.7 µM) with P. aeruginosa ATCC 35151; less than 1 µg/mL in the assay on E. coli 901C; more than 128 µg/mL in the assay on K. pneumoniae SI-117; more than 128 µg/mL in the assay with E. coli AG100; more than 128 µg/mL in the assay with E. coli ATCC 25922; more than 128 µg/mL in the assay on K. pneumoniae 848844.

For the origin of these results see patent US20240270762A1, “PENICILLIN-BINDING PROTEIN INHIBITORS” (priority 2021, published 2024).
